Laboratory results taken from patent US8722014B2, “1 H-[1, 2, 3] triazole substituted amino acids and uses thereof” (Washington University, priority 2009, dated 2014).
Values joined by “and” are separate entries in the source; they are usually repeats but may differ in a detail not shown here. Equal entries are not always repeated. Where two headings read alike, the source gives them in different places.

How the values were obtained:
[1] = system: subcutaneous 9L gliosarcoma tumors
Method: Biodistribution studies were performed with both enantiomers, (R)-[^18F]4 and (S)-[^18F]4, using Fischer 344 rats (Charles River Laboratories, Wilmington Mass., USA) implanted with subcutaneous 9L gliosarcoma tumors. The tumors were implanted by subcutaneous injection of a suspension of approximately 1×10^69L gliosarcoma cells into the flanks of the rats. The tumors were allowed to grow for 3 weeks prior to the study. The rats were allowed food and water ad libitum prior to the biodistribution study. Anesthesia was achieved using a mixture of 1% isoflurane in oxygen, and the radiolabeled amino acid (R)-[^18F]4 or (S)-[^18F]4 was injected intravenously through a tail vein. The animals were euthanized in groups of four for each enantiomer at 5, 30 or 60 minutes after injection. The organs and tissues of interest and the tumors were dissected and weighed, and the amounts of activity were measured and decay corrected to the time of injection with a gamma counter. Standards for the doses were also measured with a gamma counter, and the data were normalized as the percent of total dose per gram of tissue (% ID/g) for each sample. The data were analyzed using GraphPad Prism software with 1-way ANOVAs for each enantiomer at each time point with Bonferroni post-tests. The tumor and brain uptake of radioactivity was directly compared for both enantiomers at each time point with a 2-way ANOVA with Bonferroni post-test. p-values less than or equal to 0.05 were considered statistically significant.

9L gliosarcoma cells = test: Cell uptake assay in 9L gliosarcoma cells with amino acid transport inhibitors (cluster tray method); assay type: cell-based; settings: for percent uptake relative to control, Na ASC: L-Ala/L-Ser/L-Cys 3.3 mM each
Method: The 9L gliosarcoma tumor is an established model for human glioblastoma (brain tumor). Cell uptake assays were performed with 9L gliosarcoma cells using both (R)-[^18F]4 and (S)-[^18F]4. 9L gliosarcoma cells were cultured with Earle's minimal essential medium (MEM) augmented with 10% newborn calf serum, 1% 200 mM L-glutamine, 1% MEM vitamin solution and 1% 10 mM non-essential amino acids (NEAA). The cells were passaged every two to three days prior to use with no more than a total of 20 passages. Two to three days before the uptake assays, suspension of 2.5 or 5.0×10^4 cells in culture media were aliquoted into Costar 24 well plates to achieve log growth phase with approximately 70% confluency at the time of the uptake assay (approximately 10^5 cells per well).
Cell uptake assays were performed using the cluster tray method reported in Gazzola et al., Anal. Biochem. 115: 368-374, 1981. Two buffers were used for the assays, a phosphate buffered saline solution and a sodium-free phosphate buffered choline chloride solution. […] The choline buffer was the same as the sodium buffer except choline chloride was substituted for sodium chloride and choline phosphate dibasic was substituted for sodium phosphate dibasic. A 250 mM solution of choline phosphate dibasic was prepared by boiling 95.6 mL of 75% of choline bicarbonate (0.500 mol) and 16.9 mL of 85% aqueous phosphoric acid (0.247 mol) in 750 mL of water for 60 min. The solution was brought to a total volume of 1 liter with water and brought to pH 7.4 with concentrated aqueous hydrochloric acid. The pH of the sodium and choline buffer solutions was adjusted to 7.4 with concentrated aqueous hydrochloric acid prior to use.
A variety of inhibitor conditions were used to determine which amino acid transport system or systems were responsible for cellular uptake of (R)- and (S)-[^18F]-4. The N-methylated amino acid, methylaminoisobutyric acid (MeAIB), is a selective system A substrate and has been used extensively as a competitive inhibitor of system A transport (Shotwell, M. A., et al. Biochem. Biophys. Acta. 737: 267-284, 1983; Christensen, H. N., et al., J. Biol. Chem. 240: 3609-3616, 1965) The bulky neutral amino acid, 2-aminobicyclo-(2,2,1)-heptane-2-carboxylic acid (BCH), has been extensively used as a competitive inhibitor of system L transport, and under sodium-free conditions BCH is a selective system L inhibitor (Palacin, M., et al., Physiol. Rev. 78: 969-1054, 1998. In the presence of sodium, BCH is also an inhibitor of system B^0,+ which is a sodium-dependent amino acid transporter that typically is a minor transport systems in most tissues. A mixture of L-alanine (L-Ala), L-serine (L-Ser) and L-cysteine (L-Cys), (ASC), was used as a non-specific inhibitor condition, and this combination of amino acids is expected to inhibit a broad range of amino acid transport systems including system ASC. Because of the results of initial cell uptake assays described below and the structural relationship of the 1H-1,2,3-triazole group to the imidazole side chain of L-histidine (L-His), additional uptake assays using L-His as well as the basic side chain amino acids L-arginine (L-Arg) and L-lysine (L-Lys) individually and together (RKH) as competitive inhibitors were performed.
The following inhibitors were added to the appropriate sodium or choline buffer: N-methyl aminoisobutyric acid (MeAIB, 10 mM), a mixture of L-alanine/L-serine/L-cysteine (ASC, 3.3 mM of each amino acid), (R,S)-(endo,exo)-2-aminobicyclo(2,2,1)-heptane-2-carboxylic acid (BCH, 10 mM), L-arginine (Arg, 10 mM), L-lysine (Lys, 10 mM), L-histidine (His, 10 mM) and a mixture of Arg/Lys/H is (RKH, 3.3 mM of each amino acid). For control conditions, 10 mM of sucrose was added to maintain consistent osmolality relative to the inhibitor conditions. The pH of each solution of inhibitor in buffer was adjusted as necessary to 7.40 with 3 M aqueous hydrochloric acid prior to use in cell uptake assays. […]

In the case of Cl.N[C@H](Cc1cn(CC[18F])nn1)C(=O)O [(R)-[^18F]4, (R)-2-amino-3-[1-(2-fluoroethyl)-1H-[1,2,3]triazol-4-yl]propanoic acid hydrochloride salt-[^18F]], the “biodistribution: blood” value ([1]; 5 min after i.v. injection) is reported as 0.90 ± 0.166 % ID/g, the “biodistribution: bone” value ([1]; 5 min after i.v. injection) is reported as 0.32 ± 0.083 % ID/g and the “biodistribution: brain” value ([1]; 5 min after i.v. injection) is reported as 0.09 ± 0.015 % ID/g. The “biodistribution: fat” value ([1]; 5 min after i.v. injection) was 0.10 ± 0.044 % ID/g, the “biodistribution: heart” value ([1]; 5 min after i.v. injection) was 0.42 ± 0.076 % ID/g and the “biodistribution: kidney” value ([1]; 5 min after i.v. injection) was 14.01 ± 3.826 % ID/g. For the same molecule, the “biodistribution: large intestine” value ([1]; 5 min after i.v. injection) was 0.15 ± 0.043 % ID/g, the “biodistribution: liver” value ([1]; 5 min after i.v. injection) was 0.54 ± 0.153 % ID/g and the “biodistribution: lung” value ([1]; 5 min after i.v. injection) was 0.74 ± 0.143 % ID/g. For the same molecule, the “biodistribution: muscle” value ([1]; 5 min after i.v. injection) was 0.18 ± 0.049 % ID/g, the “biodistribution: pancreas” value ([1]; 5 min after i.v. injection) was 0.53 ± 0.126 % ID/g and the “biodistribution: salivary gland” value ([1]; 5 min after i.v. injection) was 0.46 ± 0.083 % ID/g. The “biodistribution: small intestine” value ([1]; 5 min after i.v. injection) was 0.32 ± 0.079 % ID/g, the “biodistribution: spleen” value ([1]; 5 min after i.v. injection) was 0.33 ± 0.065 % ID/g and the “biodistribution: testes” value ([1]; 5 min after i.v. injection) was 0.18 ± 0.042 % ID/g. The “biodistribution: thyroid” value ([1]; 5 min after i.v. injection) was 0.64 ± 0.092% of total dose per organ, the “biodistribution: tumor” value ([1]; 5 min after i.v. injection) was 0.27 ± 0.042 % ID/g and the “tumor:brain ratio” value ([1]; 5 min after i.v. injection) was 3.2. For the same molecule, the “biodistribution: blood” value ([1]; 30 min after i.v. injection) was 0.28 ± 0.037 % ID/g, the “biodistribution: bone” value ([1]; 30 min after i.v. injection) was 0.13 ± 0.027 % ID/g and the “biodistribution: brain” value ([1]; 30 min after i.v. injection) was 0.04 ± 0.005 % ID/g. The “biodistribution: fat” value ([1]; 30 min after i.v. injection) was 0.03 ± 0.012 % ID/g, the “biodistribution: heart” value ([1]; 30 min after i.v. injection) was 0.13 ± 0.014 % ID/g and the “biodistribution: kidney” value ([1]; 30 min after i.v. injection) was 6.76 ± 0.830 % ID/g. For the same molecule, the “biodistribution: large intestine” value ([1]; 30 min after i.v. injection) was 0.08 ± 0.060 % ID/g, the “biodistribution: liver” value ([1]; 30 min after i.v. injection) was 0.58 ± 0.074 % ID/g and the “biodistribution: lung” value ([1]; 30 min after i.v. injection) was 0.54 ± 0.211 % ID/g. The “biodistribution: muscle” value ([1]; 30 min after i.v. injection) was 0.08 ± 0.020 % ID/g, the “biodistribution: pancreas” value ([1]; 30 min after i.v. injection) was 0.50 ± 0.105 % ID/g and the “biodistribution: salivary gland” value ([1]; 30 min after i.v. injection) was 0.20 ± 0.016 % ID/g. The “biodistribution: small intestine” value ([1]; 30 min after i.v. injection) was 0.30 ± 0.154 % ID/g, the “biodistribution: spleen” value ([1]; 30 min after i.v. injection) was 0.18 ± 0.004 % ID/g and the “biodistribution: testes” value ([1]; 30 min after i.v. injection) was 0.08 ± 0.011 % ID/g. For the same molecule, the “biodistribution: thyroid” value ([1]; 30 min after i.v. injection) was 0.21 ± 0.023% of total dose per organ, the “biodistribution: tumor” value ([1]; 30 min after i.v. injection) was 0.29 % ID/g and 0.29 ± 0.132 % ID/g and the “tumor:brain ratio” value ([1]; 30 min after i.v. injection) was 8.8. For the same molecule, the “biodistribution: blood” value ([1]; 60 min after i.v. injection) was 0.14 ± 0.015 % ID/g, the “biodistribution: bone” value ([1]; 60 min after i.v. injection) was 0.08 ± 0.007 % ID/g and the “biodistribution: brain” value ([1]; 60 min after i.v. injection) was 0.02 ± 0.001 % ID/g. The “biodistribution: fat” value ([1]; 60 min after i.v. injection) was 0.02 ± 0.002 % ID/g, the “biodistribution: heart” value ([1]; 60 min after i.v. injection) was 0.08 ± 0.006 % ID/g and the “biodistribution: kidney” value ([1]; 60 min after i.v. injection) was 2.39 ± 0.138 % ID/g. For the same molecule, the “biodistribution: large intestine” value ([1]; 60 min after i.v. injection) was 0.05 ± 0.002 % ID/g, the “biodistribution: liver” value ([1]; 60 min after i.v. injection) was 0.48 ± 0.023 % ID/g and the “biodistribution: lung” value ([1]; 60 min after i.v. injection) was 0.37 ± 0.100 % ID/g. For the same molecule, the “biodistribution: muscle” value ([1]; 60 min after i.v. injection) was 0.05 ± 0.006 % ID/g, the “biodistribution: pancreas” value ([1]; 60 min after i.v. injection) was 0.43 ± 0.063 % ID/g and the “biodistribution: salivary gland” value ([1]; 60 min after i.v. injection) was 0.15 ± 0.009 % ID/g. The “biodistribution: small intestine” value ([1]; 60 min after i.v. injection) was 0.35 ± 0.015 % ID/g, the “biodistribution: spleen” value ([1]; 60 min after i.v. injection) was 0.14 ± 0.002 % ID/g and the “biodistribution: testes” value ([1]; 60 min after i.v. injection) was 0.05 ± 0.002 % ID/g. The “biodistribution: thyroid” value ([1]; 60 min after i.v. injection) was 0.12 ± 0.010% of total dose per organ, the “biodistribution: tumor” value ([1]; 60 min after i.v. injection) was 0.17 ± 0.009 % ID/g and the “tumor:brain ratio” value ([1]; 60 min after i.v. injection) was 6.9. The “inhibition of uptake by ASC condition relative to the sodium control” value (9L gliosarcoma cells; neutral amino acid inhibitor assay, p<0.001) was 36%, the “uptake mediated by system L or cationic amino acid transport systems” value (9L gliosarcoma cells; same uptake assays with inhibitors) was “did not demonstrate significant uptake” and the “inhibition of uptake by ASC condition relative to the sodium control” value (9L gliosarcoma cells; second independent assay, p<0.01) was 33%. For the same molecule, the “percent uptake relative to control, Na RKH” value (9L gliosarcoma cells; sodium buffer, Arg/Lys/His 3.3 mM each (FIG. 4/6)) was 82±4%, the “percent uptake relative to control, Na BCH” value (9L gliosarcoma cells; sodium buffer, BCH 10 mM, 30 sec uptake, neutral amino acid inhibitor assay (FIG. 3/5)) was 110±11% and the “percent uptake relative to control, Na ASC” value (9L gliosarcoma cells; sodium buffer, 30 sec uptake, neutral amino acid inhibitor assay (FIG. 3/5)) was 64±6%. The “percent uptake relative to control, Na ASC” value (9L gliosarcoma cells; sodium buffer, basic side chain amino acid inhibitor assay (FIG. 4/6)) was 67±15%, the “percent uptake relative to control, Na Arg” value (9L gliosarcoma cells; sodium buffer, L-arginine 10 mM (FIG. 4/6)) was 83±7% and the “percent uptake relative to control, Na His” value (9L gliosarcoma cells; sodium buffer, L-histidine 10 mM (FIG. 4/6)) was 91±10%. The “percent uptake relative to control, Na Lys” value (9L gliosarcoma cells; sodium buffer, L-lysine 10 mM (FIG. 4/6)) was 104±8%, the “percent uptake relative to control, Na MeAIB” value (9L gliosarcoma cells; sodium buffer, MeAIB 10 mM, 30 sec uptake, neutral amino acid inhibitor assay (FIG. 3/5)) was 97±7% and the “percent uptake relative to control, Cho BCH” value (9L gliosarcoma cells; sodium-free choline buffer, BCH 10 mM, relative to sodium control (FIG. 3/5)) was 95±4%. The “percent uptake relative to control, Cho sucrose” value (9L gliosarcoma cells; sodium-free choline buffer, sucrose 10 mM, relative to sodium control (FIG. 3/5)) was 107±14%.
